This is an account of results in a compilation of properties of binary mixtures.

The nature of this data set: xn = mol fraction of the nth substance listed.
Setting [1] is: 298.15 K, 101.3 kPa, x1 = 0.333.
The mark [2] stands for this setting: 303.15 K, 101.3 kPa, x1 = 0.333.
The mark [3] stands for this setting: 308.15 K, 101.3 kPa, x1 = 0.333.
Where [4] appears, read: 313.15 K, 101.3 kPa, x1 = 0.333.

Usually viscosity stands for the resistance of a fluid to flow. Regarding `CCCCC(CC)COC(=O)CC(C(=O)OCC(CC)CCCC)S(=O)(=O)[O-].CCCC[n+]1ccn(C)c1` (stereo not drawn) + O, the viscosity is listed as 692 mPa·s (313.15 K, 99.6 kPa, x1 = 0.8695); 363 mPa·s (323.15 K, 99.6 kPa, x1 = 0.8695); 207 mPa·s (333.15 K, 99.6 kPa, x1 = 0.8695).
Consider `CCCCCCCC(=O)[O-].CCCCCC[NH+](CCCCCC)CCCCCC` + O, for which the viscosity runs as follows: (298.15 K, 101 kPa, x1 = 0.3915) 15.42 mPa·s; (298.15 K, 101 kPa, x1 = 0.7748) 21.01 mPa·s.
`CCCCCCCCCCCCOS(=O)(=O)[O-].CCCC[n+]1ccn(C)c1` + O: the viscosity runs as follows: (303 K, 101 kPa, x1 = 0.011) 300 mPa·s; (303 K, 101 kPa, x1 = 0.0288) 113000 mPa·s; (303 K, 101 kPa, x1 = 0.0626) 1070000 mPa·s; (303 K, 101 kPa, x1 = 0.1512) 4200000 mPa·s; (303 K, 101 kPa, x1 = 1) 1.32e+07 mPa·s; (333 K, 101 kPa, x1 = 0.011) 25000 mPa·s. The viscosity is, setting by setting: (333 K, 101 kPa, x1 = 0.0288) 335000 mPa·s; (333 K, 101 kPa, x1 = 0.1512) 1780000 mPa·s.
`CCCCCCCCCC[n+]1ccn(C)c1.[Cl-]` + O: the electrical conductivity (298.15 K, 101.3 kPa, x1 = 0.0171) turned out to be 3.25 S/m.
As a reminder, the speed of sound is how fast a sound wave travels through the sample. On to `CCCCCCCCn1cc[n+](C)c1.[Cl-]` + O, for which the speed of sound reads like this: (298.15 K, 101 kPa, x2 = 0) 1721 m/s; (298.15 K, 101 kPa, x2 = 0.1484) 1666.7 m/s; (298.15 K, 101 kPa, x2 = 0.203) 1655.1 m/s; (298.15 K, 101 kPa, x2 = 0.5334) 1632.2 m/s; (298.15 K, 101 kPa, x2 = 0.6807) 1639.3 m/s; (298.15 K, 101 kPa, x2 = 0.8185) 1650.7 m/s. Also, the speed of sound (298.15 K, 101 kPa, x2 = 0.9307) was determined as 1639.6 m/s and the speed of sound (298.15 K, 101 kPa, x2 = 0.9635) stood at 1611.3 m/s.
As to `CCCC[NH3+].O=[N+]([O-])[O-]` + O, the viscosity is, setting by setting: (303.15 K, 101 kPa, x2 = 0.3495) 22.35 mPa·s; (308.15 K, 101 kPa, x2 = 0.3495) 19.25 mPa·s; (313.15 K, 101 kPa, x2 = 0.3495) 16.75 mPa·s.
With `CCCC[P+](CCCC)(CCCC)CCCC.[Cl-]` + O, the viscosity (313.15 K, 101 kPa, x1 = 0.0438) amounted to 2.533 mPa·s.
On to `CC[N+](CC)(CC)CC.[Cl-]` + O, for which the electrical conductivity (323 K, 100 kPa, x1 = 0.2) was found to be 4.1 S/m.
As to `CC[n+]1ccn(C)c1.[Cl-]` + O, the viscosity is, setting by setting: (373 K, 100 kPa, x1 = 0.8) 20 mPa·s; (373 K, 100 kPa, x1 = 0.9524) 27 mPa·s.
As to `CCn1cc[n+](C)c1.O=S(=O)([O-])C(F)(F)C(F)(F)C(F)(F)C(F)(F)F` + O, the viscosity by setting is: (298.15 K, 101.3 kPa, x1 = 0.0001) 1.038 mPa·s; (298.15 K, 101.3 kPa, x1 = 0.0005) 1.111 mPa·s; (298.15 K, 101.3 kPa, x1 = 0.0011) 1.091 mPa·s; (298.15 K, 101.3 kPa, x1 = 0.0018) 1.164 mPa·s; (298.15 K, 101.3 kPa, x1 = 0.0049) 1.367 mPa·s; (298.15 K, 101.3 kPa, x1 = 0.0109) 1.96 mPa·s. This compound gave a viscosity (298.15 K, 101.3 kPa, x2 = 0.9783) of 3.03 mPa·s.
Turning to `C[N+](C)(C)CCO.O=C([O-])[C@@H]1CCCN1` + O, the viscosity is reported as 0.91 mPa·s (308.15 K, 100 kPa, x1 = 0.0043); 2.01 mPa·s (308.15 K, 100 kPa, x1 = 0.0342); 1.11 mPa·s (323.15 K, 100 kPa, x1 = 0.0202); 1.52 mPa·s (323.15 K, 100 kPa, x1 = 0.0342); 1 mPa·s (338.15 K, 100 kPa, x1 = 0.0202); 0.88 mPa·s (353.15 K, 100 kPa, x1 = 0.0202). The viscosity (353.15 K, 100 kPa, x1 = 0.0342) amounted to 0.98 mPa·s.
Consider `CCCC[N+](CCCC)(CCCC)CCCC.[Cl-]` + OCC(O)CO, for which the viscosity (318.15 K, 100 kPa, x1 = 0.333) was determined as 57.8 mPa·s.
Take `CCCC[n+]1ccn(C)c1.[Cl-]` + OCC(O)CO: the speed of sound is, setting by setting: (298.15 K, 101 kPa, x2 = 0.333) 1838.8 m/s; (303.15 K, 101 kPa, x2 = 0.333) 1826.5 m/s; (313.15 K, 101 kPa, x2 = 0.333) 1802.4 m/s.
In the case of `CC[N+](CC)(CC)CC.[Cl-]` + OCC(O)CO, the viscosity (318.15 K, 100 kPa, x1 = 0.333) turned out to be 94.1 mPa·s.
Where the note is “313.15 K, 100 kPa, x1 = 0.3333”, `CC[N+]1(C)CCCC1.[Br-]` + OCC(O)CO displayed a speed of sound of 1870.1 m/s.
Turning to `CC[n+]1ccn(C)c1.[Cl-]` + OCC(O)CO, the viscosity is, setting by setting: (298.15 K, 101 kPa, x1 = 0.667) 345 mPa·s; (303.15 K, 101 kPa, x1 = 0.667) 243 mPa·s; (323.15 K, 101 kPa, x1 = 0.667) 75.6 mPa·s; (333.15 K, 101 kPa, x1 = 0.667) 47.2 mPa·s.
For `C[N+](C)(C)CCCl.[Cl-]` + OCC(O)CO, the viscosity (318.15 K, 100 kPa, x1 = 0.333) is given as 161 mPa·s.
For the compound `CC[N+]1(C)CCCC1.[Br-]` + OCCCCCCO, the speed of sound is, setting by setting: (293.15 K, 101.3 kPa, x1 = 0.333) 1915.5 m/s; under setting [1], 1903.4 m/s; under setting [2], 1891.8 m/s; under setting [3], 1879.3 m/s; under setting [4], 1869.1 m/s.
Turning to `CCCC[P+](CCCC)(CCCC)CCCC.[Br-]` + OCCO, the viscosity stood at 93.4 mPa·s under setting [1]; 72.4 mPa·s under setting [2]; 56.9 mPa·s under setting [3]; 45.3 mPa·s under setting [4]; 36.6 mPa·s (318.15 K, 101.3 kPa, x1 = 0.333).
For the compound `CCCC[n+]1ccn(C)c1.[Cl-]` + OCCO, the electrical conductivity is, setting by setting: (303.15 K, 100 kPa, x1 = 0.333) 0.966 S/m; (303.15 K, 100 kPa, x1 = 0.5) 1.06 S/m.
In the case of `CC[N+]1(C)CCCC1.[Br-]` + OCCO, the speed of sound reads like this: (293.15 K, 100 kPa, x1 = 0.2) 1716 m/s; (298.15 K, 100 kPa, x1 = 0.2) 1704 m/s; (303.15 K, 100 kPa, x1 = 0.2) 1692 m/s; (308.15 K, 100 kPa, x1 = 0.2) 1681 m/s; (313.15 K, 100 kPa, x1 = 0.2) 1654 m/s.
As for `[Cl-].c1ccc(C[P+](c2ccccc2)(c2ccccc2)c2ccccc2)cc1` + OCCO, the viscosity (303.15 K, 100 kPa, x1 = 0.0833) was found to be 69.7 mPa·s; the viscosity (313.15 K, 100 kPa, x1 = 0.0833) amounted to 50.2 mPa·s; the viscosity (333.15 K, 100 kPa, x1 = 0.0833) came out at 31 mPa·s; the viscosity (353.15 K, 100 kPa, x1 = 0.0833) is on record as 21.35 mPa·s.
`CCCC[P+](CC)(CCCC)CCCC.[Br-]` + OCCOCCO: the viscosity amounted to 77 mPa·s (303.15 K, 101 kPa, x1 = 0.333); 48.93 mPa·s (313.15 K, 101 kPa, x1 = 0.333); 32.91 mPa·s (323.15 K, 101 kPa, x1 = 0.333); 16.88 mPa·s (343.15 K, 101 kPa, x1 = 0.333).
Compound `CCCC[N+]1(C)CCCC1.O=S(=O)([N-]S(=O)(=O)C(F)(F)F)C(F)(F)F` + OCCOCCOCCOCCO registered a viscosity (298.15 K, 101 kPa, x2 = 0) of 70.5 mPa·s.
`CCCC[N+]1(C)CCCCC1.O=S(=O)([N-]S(=O)(=O)C(F)(F)F)C(F)(F)F` + OCCOCCOCCOCCO: the viscosity by setting is: (298.15 K, 101 kPa, x2 = 0) 178.5 mPa·s; (298.15 K, 101 kPa, x2 = 0.5) 79.5 mPa·s.
Take `CCCC[n+]1ccn(C)c1.O=S(=O)([O-])C(F)(F)F` + OCCOCCOCCOCCO: the viscosity (298.15 K, 101 kPa, x2 = 0) is on record as 59.8 mPa·s.
As to `CCCC[n+]1ccn(C)c1C.F[B-](F)(F)F` + OCCOCCOCCOCCO, the viscosity worked out at 573 mPa·s (298.15 K, 101 kPa, x2 = 0) and 82.1 mPa·s (298.15 K, 101 kPa, x2 = 0.5).
For `CCCn1cc[n+](C)c1C.O=S(=O)([N-]S(=O)(=O)C(F)(F)F)C(F)(F)F` + OCCOCCOCCOCCO, the viscosity was 85.6 mPa·s (298.15 K, 101 kPa, x2 = 0) and 56.1 mPa·s (298.15 K, 101 kPa, x2 = 0.5).
`C[N+](C)(C)CCO.O=S(=O)([N-]S(=O)(=O)C(F)(F)F)C(F)(F)F` + OCCOCCOCCOCCO returned a viscosity (298.15 K, 101 kPa, x2 = 0.5) of 87 mPa·s.
On to `CC[N+](CC)(CC)CC.[Cl-]` + Oc1ccccc1, for which the viscosity by setting is: (303.15 K, 101 kPa, x1 = 0.333) 72.1 mPa·s; (313.15 K, 101 kPa, x1 = 0.2) 21.28 mPa·s; (313.15 K, 101 kPa, x1 = 0.25) 24.68 mPa·s; (313.15 K, 101 kPa, x1 = 0.333) 43 mPa·s; (323.15 K, 101 kPa, x1 = 0.25) 16.86 mPa·s; (323.15 K, 101 kPa, x1 = 0.333) 27.8 mPa·s.
Take `CCCCCCCCn1cc[n+](C)c1.O=S(=O)([N-]S(=O)(=O)C(F)(F)F)C(F)(F)F` + c1ccccc1: the viscosity is, setting by setting: (293 K, 101 kPa, x1 = 0.1) 3.21 mPa·s; (293 K, 101 kPa, x1 = 0.4) 23.5 mPa·s; (293 K, 101 kPa, x1 = 0.8) 74.4 mPa·s; (293 K, 101 kPa, x1 = 1) 113 mPa·s.
